PubChem BioAssay (NCI)
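96-well plates; 48 h exposure; 5 concentrations. Endpoints by linear interpolation between flanking doses. Not reached: highest tested concentration assigned. Here, GI50 denotes the concentration required for 50% inhibition of growth. TGI marks complete inhibition of growth.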

Columns and labels:
Assay in all cases: growth of human tumour cells (NCI), 48 h
786-0 renal = system: 786-0 renal
A498 renal = system: A498 renal
A549 NSCLC = system: A549 NSCLC
ACHN renal = system: ACHN renal
BT-549 breast = system: BT-549 breast
CAKI-1 renal = system: CAKI-1 renal
CCRF-CEM leukemia = system: CCRF-CEM leukemia
COLO 205 colon = system: COLO 205 colon
DU-145 prostate = system: DU-145 prostate
EKVX NSCLC = system: EKVX NSCLC
HCC-2998 colon = system: HCC-2998 colon
HCT-116 colon = system: HCT-116 colon
HCT-15 colon = system: HCT-15 colon
HL-60(TB) leukemia = system: HL-60(TB) leukemia
HOP-62 NSCLC = system: HOP-62 NSCLC
HOP-92 NSCLC = system: HOP-92 NSCLC
HS 578T breast = system: HS 578T breast
HT29 colon = system: HT29 colon
IGROV1 ovarian = system: IGROV1 ovarian
K-562 leukemia = system: K-562 leukemia
KM12 colon = system: KM12 colon
LOX IMVI melanoma = system: LOX IMVI melanoma
M14 melanoma = system: M14 melanoma
MALME-3M melanoma = system: MALME-3M melanoma
MCF7 breast = system: MCF7 breast
MDA-MB-231 breast = system: MDA-MB-231 breast
MDA-MB-435 = system: MDA-MB-435
MOLT-4 leukemia = system: MOLT-4 leukemia
NCI-H226 lung = system: NCI-H226 lung
NCI-H23 lung = system: NCI-H23 lung
NCI-H460 lung = system: NCI-H460 lung
NCI-H522 lung = system: NCI-H522 lung
NCI/ADR-RES ovarian = system: NCI/ADR-RES ovarian
OVCAR-3 ovarian = system: OVCAR-3 ovarian
OVCAR-4 ovarian = system: OVCAR-4 ovarian
OVCAR-5 ovarian = system: OVCAR-5 ovarian
OVCAR-8 ovarian = system: OVCAR-8 ovarian
PC-3 prostate = system: PC-3 prostate
RPMI-8226 leukemia = system: RPMI-8226 leukemia
SF-268 CNS = system: SF-268 CNS
SF-295 CNS = system: SF-295 CNS
SF-539 CNS = system: SF-539 CNS
SK-MEL-2 melanoma = system: SK-MEL-2 melanoma
SK-MEL-28 melanoma = system: SK-MEL-28 melanoma
SK-MEL-5 melanoma = system: SK-MEL-5 melanoma
SK-OV-3 ovarian = system: SK-OV-3 ovarian
SN12C renal = system: SN12C renal
SNB-19 CNS = system: SNB-19 CNS
SNB-75 CNS = system: SNB-75 CNS
SR leukemia = system: SR leukemia
SW-620 colon = system: SW-620 colon
T-47D breast = system: T-47D breast
TK-10 renal = system: TK-10 renal
U251 CNS = system: U251 CNS
UACC-257 melanoma = system: UACC-257 melanoma
UACC-62 melanoma = system: UACC-62 melanoma
UO-31 renal = system: UO-31 renal
RXF 393 renal = system: RXF 393 renal

Nc1nc(Cl)c2ncn(Cc3ccccc3CCl)c2n1
TGI (786-0 renal): 52 µM | TGI (A498 renal): 44.3 µM | TGI (A549 NSCLC): 53.1 µM | TGI (ACHN renal): 22 µM | TGI (BT-549 breast): 22.9 µM | TGI (CAKI-1 renal): 20.4 µM | TGI (CCRF-CEM leukemia): > 100 µM | TGI (COLO 205 colon): > 100 µM | TGI (DU-145 prostate): 32.3 µM | TGI (EKVX NSCLC): 31.1 µM | TGI (HCC-2998 colon): 6.57 µM | TGI (HCT-116 colon): > 100 µM | TGI (HCT-15 colon): 7.45 µM | TGI (HL-60(TB) leukemia): > 100 µM | TGI (HOP-62 NSCLC): 62.3 µM | TGI (HOP-92 NSCLC): 31.1 µM | TGI (HS 578T breast): 77.6 µM | TGI (HT29 colon): 18.9 µM | TGI (IGROV1 ovarian): > 100 µM | TGI (K-562 leukemia): > 100 µM | TGI (KM12 colon): 39 µM | TGI (LOX IMVI melanoma): 21.9 µM | TGI (M14 melanoma): 40.1 µM | TGI (MALME-3M melanoma): 10.2 µM | TGI (MCF7 breast): 24.3 µM | TGI (MDA-MB-231 breast): 9.61 µM | TGI (MDA-MB-435): 27 µM | TGI (MOLT-4 leukemia): > 100 µM | TGI (NCI-H226 lung): 9.95 µM | TGI (NCI-H23 lung): 8.84 µM | TGI (NCI-H460 lung): 36.8 µM | TGI (NCI-H522 lung): 9.41 µM | TGI (NCI/ADR-RES ovarian): 34.6 µM | TGI (OVCAR-3 ovarian): 10.9 µM | TGI (OVCAR-4 ovarian): 6.47 µM | TGI (OVCAR-5 ovarian): 39.8 µM | TGI (OVCAR-8 ovarian): 19.6 µM | TGI (PC-3 prostate): 68.1 µM | TGI (RPMI-8226 leukemia): > 100 µM | TGI (SF-268 CNS): 14.5 µM | TGI (SF-295 CNS): 23.4 µM | TGI (SF-539 CNS): 38.2 µM | TGI (SK-MEL-2 melanoma): 80.6 µM | TGI (SK-MEL-28 melanoma): 20.7 µM | TGI (SK-MEL-5 melanoma): 26.5 µM | TGI (SK-OV-3 ovarian): 52.1 µM | TGI (SN12C renal): 5.62 µM | TGI (SNB-19 CNS): 27.5 µM | TGI (SNB-75 CNS): 23.8 µM | TGI (SR leukemia): > 100 µM | TGI (SW-620 colon): 11.8 µM | TGI (T-47D breast): 83.9 µM | TGI (TK-10 renal): 36.7 µM | TGI (U251 CNS): 13.4 µM | TGI (UACC-257 melanoma): 38.2 µM | TGI (UACC-62 melanoma): 4.33 µM | TGI (UO-31 renal): 45 µM

C[C@]12CC[C@H]3[C@@H](C[C@@H]4SC(Nc5cccc(F)c5)=N[C@@]45CC(=O)CC[C@]35C)[C@@H]1CCC2=O
GI50 (786-0 renal): 1.43 µM | TGI (786-0 renal): 2.83 µM | GI50 (A498 renal): 2.16 µM | TGI (A498 renal): 6.77 µM | GI50 (A549 NSCLC): 2.58 µM | TGI (A549 NSCLC): 7.5 µM | GI50 (ACHN renal): 1.78 µM | TGI (ACHN renal): 3.24 µM | GI50 (BT-549 breast): 1.54 µM | TGI (BT-549 breast): 3.61 µM | GI50 (CAKI-1 renal): 1.99 µM | TGI (CAKI-1 renal): 5.73 µM | GI50 (CCRF-CEM leukemia): 1.9 µM | TGI (CCRF-CEM leukemia): > 100 µM | GI50 (COLO 205 colon): 2.16 µM | TGI (COLO 205 colon): 4.81 µM | GI50 (DU-145 prostate): 1.93 µM | TGI (DU-145 prostate): 4.87 µM | GI50 (EKVX NSCLC): 2.5 µM | TGI (EKVX NSCLC): 18.5 µM | GI50 (HCC-2998 colon): 3.55 µM | TGI (HCC-2998 colon): 14.6 µM | GI50 (HCT-116 colon): 1.59 µM | TGI (HCT-116 colon): 3.24 µM | GI50 (HCT-15 colon): 1.58 µM | TGI (HCT-15 colon): 4.08 µM | GI50 (HL-60(TB) leukemia): 2.73 µM | TGI (HL-60(TB) leukemia): 8 µM | GI50 (HOP-62 NSCLC): 2.07 µM | TGI (HOP-62 NSCLC): 5.34 µM | GI50 (HOP-92 NSCLC): 2.25 µM | TGI (HOP-92 NSCLC): 4.17 µM | GI50 (HS 578T breast): 3.14 µM | TGI (HS 578T breast): > 100 µM | GI50 (HT29 colon): 1.49 µM | TGI (HT29 colon): 3.51 µM | GI50 (IGROV1 ovarian): 1.89 µM | TGI (IGROV1 ovarian): 3.83 µM | GI50 (KM12 colon): 3 µM | TGI (KM12 colon): 12.4 µM | GI50 (LOX IMVI melanoma): 1.67 µM | TGI (LOX IMVI melanoma): 3.21 µM | GI50 (M14 melanoma): 2.36 µM | TGI (M14 melanoma): 7.23 µM | GI50 (MALME-3M melanoma): 1.94 µM | TGI (MALME-3M melanoma): 5.04 µM | GI50 (MCF7 breast): 1.37 µM | TGI (MCF7 breast): 3.28 µM | GI50 (MDA-MB-231 breast): 2.11 µM | TGI (MDA-MB-231 breast): 4.59 µM | GI50 (MDA-MB-435): 2.74 µM | TGI (MDA-MB-435): 13.1 µM | GI50 (MOLT-4 leukemia): 1.68 µM | TGI (MOLT-4 leukemia): 28.3 µM | GI50 (NCI-H226 lung): 2.35 µM | TGI (NCI-H226 lung): 5.7 µM | GI50 (NCI-H23 lung): 2.27 µM | TGI (NCI-H23 lung): 9.08 µM | GI50 (NCI-H460 lung): 2.52 µM | TGI (NCI-H460 lung): 5.58 µM | GI50 (NCI-H522 lung): 1.63 µM | TGI (NCI-H522 lung): 3.06 µM | GI50 (NCI/ADR-RES ovarian): 2.81 µM | TGI (NCI/ADR-RES ovarian): 17.2 µM | GI50 (OVCAR-3 ovarian): 1.72 µM | TGI (OVCAR-3 ovarian): 3.3 µM | GI50 (OVCAR-4 ovarian): 2.71 µM | TGI (OVCAR-4 ovarian): > 100 µM | GI50 (OVCAR-5 ovarian): 2.73 µM | TGI (OVCAR-5 ovarian): 18 µM | GI50 (OVCAR-8 ovarian): 2.79 µM | TGI (OVCAR-8 ovarian): 7.98 µM | GI50 (PC-3 prostate): 1.88 µM | TGI (PC-3 prostate): 3.87 µM | GI50 (RPMI-8226 leukemia): 0.865 µM | TGI (RPMI-8226 leukemia): 3.9 µM | GI50 (RXF 393 renal): 1.45 µM | TGI (RXF 393 renal): 3.25 µM | GI50 (SF-268 CNS): 3.09 µM | TGI (SF-268 CNS): 11.1 µM | GI50 (SF-295 CNS): 1.19 µM | TGI (SF-295 CNS): 2.97 µM | GI50 (SF-539 CNS): 1.34 µM | TGI (SF-539 CNS): 2.94 µM | GI50 (SK-MEL-2 melanoma): 1.86 µM | TGI (SK-MEL-2 melanoma): 5.2 µM | GI50 (SK-MEL-28 melanoma): 1.52 µM | TGI (SK-MEL-28 melanoma): 4.27 µM | GI50 (SK-MEL-5 melanoma): 2.02 µM | TGI (SK-MEL-5 melanoma): 4.32 µM | GI50 (SK-OV-3 ovarian): 2.33 µM | TGI (SK-OV-3 ovarian): 6.1 µM | GI50 (SN12C renal): 2.36 µM | TGI (SN12C renal): 6.02 µM | GI50 (SNB-19 CNS): 2.33 µM | TGI (SNB-19 CNS): 5.69 µM | GI50 (SNB-75 CNS): 1.52 µM | TGI (SNB-75 CNS): 4.94 µM | GI50 (SW-620 colon): 2.33 µM | TGI (SW-620 colon): 4.99 µM | GI50 (T-47D breast): 2.22 µM | TGI (T-47D breast): 6.95 µM | GI50 (TK-10 renal): 1.97 µM | TGI (TK-10 renal): 4.15 µM | GI50 (U251 CNS): 1.59 µM | TGI (U251 CNS): 3.68 µM | GI50 (UACC-257 melanoma): 5.47 µM | TGI (UACC-257 melanoma): 64.5 µM | GI50 (UACC-62 melanoma): 1.54 µM | TGI (UACC-62 melanoma): 3.12 µM | GI50 (UO-31 renal): 1.67 µM | TGI (UO-31 renal): 3.59 µM
